Experimental data reported in PubChem BioAssay (NCI).
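1) Cells in 96-well plates. 2) Compound, 48 h, 5 concentrations. 3) Linear interpolation between surrounding doses. 4) Unreached endpoint = highest concentration. At the GI50, growth is halved. At the TGI there is no net growth.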

Key:
Test in all cases: DTP human tumour cell line panel, 48 h
[1] = tested on: OVCAR-8 ovarian
[2] = tested on: COLO 205 colon
[3] = tested on: SF-539 CNS
[4] = tested on: OVCAR-5 ovarian
[5] = tested on: ACHN renal
[6] = tested on: SK-MEL-28 melanoma
[7] = tested on: U251 CNS
[8] = tested on: EKVX NSCLC
[9] = tested on: A498 renal
[10] = tested on: HCT-15 colon

## CCC[CH2][Sn]1([CH2]CCC)[O]C(=O)C(C(C)C)N=Cc2ccccc2[O]1 (stereo not drawn)
[1]
  GI50: > 100 µM
  TGI: > 100 µM
[2]
  GI50: 0.213 µM
  TGI: 0.693 µM
[3]
  GI50: 0.878 µM
  TGI: > 100 µM
[4]
  GI50: 1.61 µM
  TGI: 2.98 µM
[5]
  GI50: 0.274 µM
  TGI: 0.882 µM
[6]
  GI50: 0.235 µM
  TGI: 0.819 µM
[7]
  GI50: 0.228 µM
  TGI: 0.636 µM
[8]
  GI50: 0.402 µM
  TGI: 1.67 µM
[9]
  GI50: 1.08 µM
  TGI: > 100 µM
[10]
  GI50: 0.345 µM
  TGI: 1.34 µM

## Cc1cc(C)c(C(=O)CC(=O)c2cccnc2)c(C)c1
[1]
  GI50: 4.58 µM
  TGI: > 100 µM
[2]
  GI50: 8.01 µM
  TGI: > 100 µM
[3]
  GI50: 6.93 µM
  TGI: 45.7 µM
[4]
  GI50: 9.84 µM
  TGI: > 100 µM
[5]
  GI50: 6.28 µM
  TGI: > 100 µM
[6]
  GI50: 14 µM
  TGI: > 100 µM
[7]
  GI50: 3.67 µM
  TGI: > 100 µM
[8]
  GI50: 3.97 µM
  TGI: 69.6 µM
[9]
  GI50: 18.8 µM
  TGI: 94.1 µM
[10]
  GI50: 3.36 µM
  TGI: > 100 µM

## Cc1ccc(C(=NN=C(N)N)c2ccc(C)cc2)cc1
[1]
  GI50: 0.773 µM
  TGI: 3.59 µM
[2]
  GI50: 0.445 µM
  TGI: 1.41 µM
[3]
  GI50: 2.1 µM
  TGI: 6.99 µM
[4]
  GI50: 1.85 µM
  TGI: 13.8 µM
[5]
  GI50: 1.1 µM
  TGI: 7.4 µM
[6]
  GI50: 2.2 µM
  TGI: 6.7 µM
[7]
  GI50: 0.399 µM
  TGI: 1.83 µM
[8]
  GI50: 0.7 µM
  TGI: 16.6 µM
[9]
  GI50: 0.395 µM
  TGI: 2.61 µM
[10]
  GI50: 0.773 µM
  TGI: 8.86 µM

## Cc1cccc(NC(=O)C(=O)Cc2nc3ccccc3[nH]c2=O)c1C
[1]
  TGI: > 100 µM
[2]
  TGI: > 100 µM
[3]
  TGI: > 100 µM
[4]
  TGI: > 100 µM
[5]
  TGI: > 100 µM
[6]
  TGI: > 100 µM
[7]
  TGI: > 100 µM
[8]
  TGI: > 100 µM
[9]
  TGI: > 100 µM
[10]
  TGI: > 100 µM

## O=C(Nc1ccc(Cl)cc1)c1cc(-c2ccc(F)cc2)c2sc(=O)[nH]c2n1
[1]
  GI50: 1.72 µM
  TGI: 4.93 µM
[2]
  GI50: 1.76 µM
  TGI: 3.82 µM
[3]
  GI50: 2.07 µM
  TGI: 5.71 µM
[4]
  GI50: 2.34 µM
  TGI: 7.9 µM
[5]
  GI50: 1.69 µM
  TGI: 4.02 µM
[6]
  GI50: 1.39 µM
  TGI: 10.1 µM
[7]
  GI50: 1.5 µM
  TGI: 4.71 µM
[8]
  GI50: 1.64 µM
  TGI: 6.11 µM
[9]
  GI50: 0.465 µM
  TGI: 3.35 µM
[10]
  GI50: 1.73 µM
  TGI: 10.1 µM

## COc1ccc(C(=O)c2cc(C)c(OC)c(C)c2)c(OC)c1N(C(=O)C(Cl)Cl)C(=O)C(Cl)Cl
[1]
  GI50: 0.0558 µM
  TGI: > 100 µM
[2]
  GI50: 0.156 µM
  TGI: 4.14 µM
[3]
  GI50: 0.0343 µM
  TGI: 0.206 µM
[4]
  GI50: 0.111 µM
  TGI: > 100 µM
[5]
  GI50: 0.0699 µM
  TGI: > 100 µM
[6]
  GI50: 0.237 µM
  TGI: > 100 µM
[7]
  GI50: 0.0553 µM
  TGI: > 100 µM
[8]
  GI50: 0.0735 µM
  TGI: > 100 µM
[9]
  GI50: < 0.0156 µM
  TGI: 0.0736 µM
[10]
  GI50: 0.0617 µM
  TGI: > 100 µM

## CC(C)c1ccc(C(=O)Nc2sc3c(c2C(N)=O)CCC(=O)C3)cc1
[1]
  GI50: 0.71 µM
  TGI: 13.3 µM
[2]
  GI50: 0.564 µM
  TGI: 1.9 µM
[3]
  GI50: 0.359 µM
  TGI: 1.49 µM
[4]
  GI50: 1.16 µM
  TGI: 3.08 µM
[5]
  GI50: 0.343 µM
  TGI: 1.11 µM
[6]
  GI50: 1.18 µM
  TGI: 3.01 µM
[7]
  GI50: 0.399 µM
  TGI: 1.9 µM
[8]
  GI50: 1.78 µM
  TGI: 5.34 µM
[9]
  GI50: 2.33 µM
  TGI: 8.52 µM
[10]
  GI50: 0.387 µM
  TGI: 2.12 µM

## CN(C)CC/C(=N\Nc1c(Cl)cccc1Cl)c1ccccc1
[1]
  TGI: 37.6 µM
[2]
  TGI: 29.4 µM
[3]
  TGI: 34.2 µM
[4]
  TGI: 35.7 µM
[5]
  TGI: 50.5 µM
[6]
  TGI: 39.7 µM
[7]
  TGI: 31.3 µM
[8]
  TGI: 94.7 µM
[9]
  TGI: 34.8 µM
[10]
  TGI: 35.6 µM

## COC(=O)c1cccc2cccc(C(=O)Nc3ccc(C)cc3C)c12
[1]
  TGI: > 100 µM
[2]
  TGI: > 100 µM
[3]
  TGI: > 100 µM
[4]
  TGI: > 100 µM
[5]
  TGI: > 100 µM
[6]
  TGI: > 100 µM
[7]
  TGI: > 100 µM
[8]
  TGI: > 100 µM
[9]
  TGI: > 100 µM
[10]
  TGI: > 100 µM

## CC(=O)OC1CC(O)C23COC(O)C1(C)C2CC(O)C1(C)C3C(=O)C(O)C2(C)C(c3ccoc3)CC3OC321 (stereo not drawn)
[1]
  GI50: 0.191 µM
[2]
  GI50: < 0.01 µM
  TGI: > 100 µM
[3]
  GI50: 0.14 µM
  TGI: > 100 µM
[4]
  GI50: > 36 µM
  TGI: > 100 µM
[5]
  GI50: 0.685 µM
  TGI: > 100 µM
[6]
  GI50: > 100 µM
  TGI: > 100 µM
[7]
  GI50: 0.379 µM
  TGI: > 100 µM
[8]
  GI50: 1.94 µM
  TGI: > 100 µM
[9]
  GI50: > 100 µM
  TGI: > 100 µM
[10]
  GI50: 1.26 µM
  TGI: > 100 µM

## COC(=O)c1cc(Br)c(Br)n1C
[1]
  TGI: > 100 µM
[2]
  TGI: > 100 µM
[3]
  TGI: > 100 µM
[4]
  TGI: > 100 µM
[5]
  TGI: > 100 µM
[6]
  TGI: > 100 µM
[7]
  TGI: > 100 µM
[8]
  TGI: > 100 µM
[9]
  TGI: > 100 µM

## CCC#CC[C@H]1C/C=C2/C(=O)C=C[C@@H]2C/C=C\CCCC(=O)O1
[1]
  GI50: 0.783 µM
  TGI: 9.71 µM
[2]
  GI50: 0.961 µM
  TGI: 2.1 µM
[3]
  GI50: 1.94 µM
  TGI: 7.67 µM
[4]
  GI50: 1.74 µM
  TGI: 6.92 µM
[5]
  GI50: 0.763 µM
  TGI: 1.56 µM
[6]
  GI50: 1.17 µM
  TGI: 3.83 µM
[7]
  GI50: 0.706 µM
  TGI: 2.24 µM
[8]
  GI50: 1.9 µM
  TGI: 7.42 µM
[9]
  GI50: 1.08 µM
  TGI: 2.49 µM
[10]
  GI50: 0.67 µM
  TGI: 2.14 µM

## COc1ccc2c(c1)CCC1C3(CCCC21C)OCCO3 (stereo not drawn)
[1]
  TGI: 50.4 µM
[2]
  TGI: 35.4 µM
[3]
  TGI: 26.3 µM
[4]
  TGI: > 100 µM
[5]
  TGI: 78.9 µM
[6]
  TGI: 35.3 µM
[7]
  TGI: 29.4 µM
[8]
  TGI: 82.3 µM
[9]
  TGI: 82.6 µM
[10]
  TGI: 34.2 µM

## Cc1ccc2nc3c(C(=O)NCCN(C)C)cccc3nc2c1
[1]
  TGI: > 42.2 µM
[2]
  TGI: > 22.4 µM
[3]
  TGI: 15.7 µM
[4]
  TGI: 29.8 µM
[5]
  TGI: 14.9 µM
[6]
  TGI: 10.9 µM
[7]
  TGI: 24.3 µM
[8]
  TGI: 24.2 µM
[9]
  TGI: 8.7 µM
[10]
  TGI: 18 µM
